Several values for one entry are separate records, joined by “and”; a condition that tells them apart may be missing. Identical values can stand only once.
Tests used:
Type in all cases: cell-based
[1] = tested on: Streptococcus anginosus KC18-1131-3B; experiment: Competition (co-culture) assay: recovery of S. anginosus after exposure to prebiotics; details: 48 hours, one value per replicate; for S. anginosus Δ on MRS / S. anginosus Δ on TSA: change vs start, background growth in media without prebiotic subtracted, co-culture; for S. anginosus Recovered on MRS / S. anginosus Recovered on TSA: co-culture with L. crispatus in API 50 CHL media with prebiotic (% w/v in label), anaerobic 37° C.
Description: (§1) The methods used herein were adapted from Vongsa et al. The method used in this particular example is as follows: • 1. A stock was created using a single prebiotic, a prebiotic mixture, or the positive control (glucose) in API 50 CHL media (Biomerieux, Marcy-l'Étoile, France). API 50 CHL media containing minimal amounts of carbon for growth and bromocresol purple as a pH indicator of fermentation. The stock media was filter-sterilized with a 0.22 μM filter and store at 4-6° C. • 2. From a freezer stock, the bacteria were subcultured twice into De Man, Rogosa, and Sharpe (MRS) broth (BD Difco, Becton Dickinson, Franklin Lakes, NJ) and incubated at 37° C. anaerobically overnight until stationary. • 3. The second MRS broth subculture was plated onto an MRS agar plate for Lactobacillus crispatus KC18-1173-1 or blood agar for Streptococcus anginosus KC18-1131-3B and incubated at 37° C. anaerobically overnight until stationary. • 4. A bacterial suspension was created for each bacterium using a sterile tipped swab to transfer colonies into API suspension media (Biomerieux, Marcy-l'Étoile, France) to reach the turbidity of a 2 MacFarland standard. • 5. The starting culture was enumerated. • 6. 9.8 mL of the prebiotic media was added into a sterile 15 mL conical tube. • 7. 100 μL of each prepared bacterial suspension was added to the media, and it was incubated anaerobically at 37° C. for 48 hours. • 8. 100 μL were harvested from each tube containing the bacteria and prebiotic media, it was serially diluted, and plated onto MRS agar and tryptic soy agar (TSA). • 9. The bacteria were enumerated on MRS agar (both L. crispatus and S. anginosus). Small colonies were counted as S. anginosus, and large colonies were counted as L. crispatus. • 10. S. anginosus was enumerated on TSA plates. […] Background growth of bacteria in the negative control (CHL media without prebiotics) was subtracted from the growth recovered in the presence of the prebiotic mixture. • 12. Statistical analysis was performed using Student's t-test. The significance level was set at p<0.05.

[2] = tested on: Lactobacillus crispatus KC18-1173-1; experiment: Competition (co-culture) assay: recovery of L. crispatus after exposure to prebiotics; details: 48 hours, one value per replicate; for L. crispatus Δ on MRS: change vs start, background growth in media without prebiotic subtracted, co-culture; for L. crispatus Recovered on MRS: co-culture with S. anginosus in API 50 CHL media with prebiotic (% w/v in label), anaerobic 37° C.
Description: as §1

[3] = tested on: Lactobacillus crispatus KC18-1173-1 to Streptococcus anginosus KC18-1131-3B; experiment: Competition (co-culture) assay: ratio of L. crispatus to S. anginosus recovered; details: average CFU/mL L. crispatus on MRS divided by average CFU/mL S. anginosus on TSA, 48 hours
Description: as §1

SMILES | S. anginosus Δ on MRS [1] | S. anginosus Δ on TSA [1] | S. anginosus Recovered on MRS [1] | S. anginosus Recovered on TSA [1] | L. crispatus Δ on MRS [2] | L. crispatus Recovered on MRS [2] | Ratio (L. crispatus/S. anginosus) [3]
O=C(CO)[C@@H](O)[C@H](O)[C@H](O)CO[C@H]1O[C@H](CO)[C@@H](O)[C@H](O)[C@H]1O [Palatinose ™ (2.0), 6-O-α-D-glucopyranosyl-D-fructose] | −1.83 Log CFU/mL and −2.08 Log CFU/mL and −2.03 Log CFU/mL and −1.82 Log CFU/mL and −1.69 Log CFU/mL | −1.48 Log CFU/mL and −2.41 Log CFU/mL and −2.00 Log CFU/mL and −2.42 Log CFU/mL and 2.39 Log CFU/mL | 4.78 Log CFU/mL and 4.00 Log CFU/mL and 4.70 Log CFU/mL and 4.88 Log CFU/mL and 5.16 Log CFU/mL | 5.00 Log CFU/mL and 4.04 Log CFU/mL and 4.70 Log CFU/mL and 4.53 Log CFU/mL and 4.74 Log CFU/mL | 2.10 Log CFU/mL and 2.30 Log CFU/mL and 2.77 Log CFU/mL and 3.24 Log CFU/mL and 1.90 Log CFU/mL | 7.93 Log CFU/mL and 8.00 Log CFU/mL and 8.19 Log CFU/mL and 8.37 Log CFU/mL and 7.98 Log CFU/mL | 2,681
OC[C@H]1O[C@@H](O[C@@H]2[C@@H](CO)OC(O)(CO)[C@H]2O)[C@H](O)[C@@H](O)[C@H]1O (mixture of isomers) [Lactulose (2.0), Lactulose] | −6.73 Log CFU/mL and −2.23 Log CFU/mL and −2.53 Log CFU/mL and −6.61 Log CFU/mL and −6.08 Log CFU/mL | −3.85 Log CFU/mL and −2.17 Log CFU/mL and −3.70 Log CFU/mL and −3.74 Log CFU/mL and −3.67 Log CFU/mL | 0.00 Log CFU/mL (3×) and 4.11 Log CFU/mL and 3.40 Log CFU/mL | 2.85 Log CFU/mL and 4.23 Log CFU/mL and 2.00 Log CFU/mL and 2.74 Log CFU/mL and 2.78 Log CFU/mL | 2.38 Log CFU/mL and 2.80 Log CFU/mL and 2.58 Log CFU/mL and 2.60 Log CFU/mL and 2.69 Log CFU/mL | 7.74 Log CFU/mL and 8.10 Log CFU/mL and 8.28 Log CFU/mL and 8.30 Log CFU/mL and 8.11 Log CFU/mL | 37,556
OC[C@@H](O)[C@@H](O[C@H]1O[C@H](CO)[C@@H](O)[C@H](O)[C@H]1O)[C@H](O)[C@@H](O)CO [Maltitol (2.0), Maltitol] | −0.12 Log CFU/mL and −0.37 Log CFU/mL | 0.41 Log CFU/mL and 0.47 Log CFU/mL | 6.58 Log CFU/mL and 6.48 Log CFU/mL | 7.26 Log CFU/mL and 7.60 Log CFU/mL | 0.35 Log CFU/mL and −0.08 Log CFU/mL | 5.48 Log CFU/mL and 6.00 Log CFU/mL | 0
OC[C@@H](O)[C@@H](O[C@@H]1O[C@H](CO)[C@H](O)[C@H](O)[C@H]1O)[C@H](O)[C@@H](O)CO [D-Lactitol (2.0), D-Lactitol] | 0.75 Log CFU/mL and 0.69 Log CFU/mL | 0.58 Log CFU/mL and 0.52 Log CFU/mL | 7.45 Log CFU/mL and 7.54 Log CFU/mL | 7.43 Log CFU/mL and 7.65 Log CFU/mL | 0.77 Log CFU/mL and 0.66 Log CFU/mL | 5.90 Log CFU/mL and 6.74 Log CFU/mL | 0
OC[C@H]1O[C@@](CO)(OC[C@@]2(O[C@H]3O[C@H](CO)[C@@H](O)[C@H](O)[C@H]3O)O[C@H](CO)[C@@H](O)[C@@H]2O)[C@@H](O)[C@@H]1O [1-Kestose (2.0), 1-Kestose] | −6.61 Log CFU/mL and −6.08 Log CFU/mL and −5.03 Log CFU/mL and −3.64 Log CFU/mL and −3.63 Log CFU/mL | −3.74 Log CFU/mL and −6.45 Log CFU/mL and −4.15 Log CFU/mL and −4.00 Log CFU/mL (2×) | 0.00 Log CFU/mL (2×) and 1.70 Log CFU/mL and 2.70 Log CFU/mL and 2.30 Log CFU/mL | 2.74 Log CFU/mL and 0.00 Log CFU/mL and 2.54 Log CFU/mL and 2.40 Log CFU/mL and 1.70 Log CFU/mL | 2.59 Log CFU/mL and 3.60 Log CFU/mL and 2.30 Log CFU/mL and 1.95 Log CFU/mL and 2.74 Log CFU/mL | 7.95 Log CFU/mL and 8.90 Log CFU/mL and 8.00 Log CFU/mL and 7.65 Log CFU/mL and 8.16 Log CFU/mL | 976,001
CO[C@H]1O[C@H](CO)[C@@H](O)[C@H](O)[C@H]1O [α-Methyl-D-Glucoside (2.0), α-Methyl-D-Glucoside] | −0.33 Log CFU/mL and 0.45 Log CFU/mL and 0.55 Log CFU/mL | 0.34 Log CFU/mL and 0.62 Log CFU/mL and 0.41 Log CFU/mL | 5.60 Log CFU/mL and 7.15 Log CFU/mL and 7.40 Log CFU/mL | 6.04 Log CFU/mL and 7.47 Log CFU/mL and 7.54 Log CFU/mL | 1.90 Log CFU/mL and 1.39 Log CFU/mL and 0.70 Log CFU/mL | 7.20 Log CFU/mL and 6.52 Log CFU/mL and 6.78 Log CFU/mL | 0

Reference: US20260000694A1, “METHODS AND COMPOSITIONS RELATED TO PREBIOTIC FORMULATIONS USEFUL IN PROMOTING UROGENITAL HEALTH” (KIMBERLY-CLARK WORLDWIDE, INC., priority 2022, published 2026)
